This is an account of results in patent publication US12673961B2 (Agios Pharmaceuticals, Inc., priority 2022, dated 2026).

Structures are written as SMILES.

The assay addresses T1, human PAH with the R408W mutation (Homo sapiens, UniProt P00439, R408W).
T1 construct: expressed in transfected cells
T1 sequence (P00439 1-452 R408W): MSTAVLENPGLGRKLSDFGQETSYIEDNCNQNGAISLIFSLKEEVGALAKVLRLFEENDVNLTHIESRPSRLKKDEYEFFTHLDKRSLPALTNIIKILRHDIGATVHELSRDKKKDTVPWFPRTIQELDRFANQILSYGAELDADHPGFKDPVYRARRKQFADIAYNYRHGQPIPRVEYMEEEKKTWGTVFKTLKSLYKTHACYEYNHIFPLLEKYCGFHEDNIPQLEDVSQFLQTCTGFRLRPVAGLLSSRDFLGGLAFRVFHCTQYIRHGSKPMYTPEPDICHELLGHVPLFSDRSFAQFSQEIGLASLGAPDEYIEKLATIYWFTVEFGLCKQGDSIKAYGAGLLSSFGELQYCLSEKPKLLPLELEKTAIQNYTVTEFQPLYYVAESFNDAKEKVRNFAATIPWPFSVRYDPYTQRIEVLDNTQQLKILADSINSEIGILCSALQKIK
Description: Cell Based Phenylalanine Flux Assay.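 Further: Ten-point dose curve from 2-fold serial dilutions, run in duplicate at 0.5% DMSO final, tracer step used 20 µM sepiapterin and 800 µM labeled phenylalanine.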 The note with it: A375 cells expressing human R408W PAH; 24 hrs with compound, then sepiapterin and 13C9,15N-Phenylalanine for 4 hours; 13C-Tyrosine by LC-MS; average where tested multiple times; read-out: AC50.
`Cc1c(-c2nnc(C(=O)N3CCc4[nH]cnc4[C@@H]3c3cc4c(C(C)C)cccn4n3)o2)cnn1C` [Example 1949, (R)-(5-(1,5-dimethyl-1H-pyrazol-4-yl)-1,3,4-oxadiazol-2-yl)(4-(4-isopropylpyrazolo [1,5-a]pyridin-2-yl)-1,4,6,7-tetrahydro-5H-imidazo[4,5-c]pyridin-5-yl)methanone]: the AC50 lay within 1 to 5 µM.
The value for `Fc1ccc(-c2nnc(N3CCc4[nH]cnc4[C@@H]3c3cc4c(F)cccn4n3)o2)cc1` [Example 1952, (R)-2-(4-fluorophenyl)-5-(4-(4-fluoropyrazolo[1,5-a]pyridin-2-yl)-1,4,6,7-tetrahydro-5H-imidazo[4,5-c]pyridin-5-yl)-1,3,4-oxadiazole] was > 5 µM; that for `Fc1ccc(-c2nnc(N3CCc4[nH]cnc4[C@H]3c3cc4c(F)cccn4n3)o2)cc1` [Example 1953, (S)-2-(4-fluorophenyl)-5-(4-(4-fluoropyrazolo[1,5-a]pyridin-2-yl)-1,4,6,7-tetrahydro-5H-imidazo[4,5-c]pyridin-5-yl)-1,3,4-oxadiazole] was < 0.5 µM; that for `Cc1cccn2nc([C@@H]3c4nc[nH]c4CCN3C(=O)c3cnc(C(C)(C)F)o3)cc12` [Example 1959, (S)-(2-(2-fluoropropan-2-yl)oxazol-5-yl)(4-(4-methylpyrazolo[1,5-a]pyridin-2-yl)-1,4,6,7-tetrahydro-5H-imidazo[4,5-c]pyridin-5-yl)methanone] was < 0.5 µM.
In the case of `Cc1cccn2nc([C@H]3c4nc[nH]c4CCN3C(=O)c3cnc(-c4cnn(C)c4C)o3)cc12` [Example 1963, (R)-(2-(1,5-dimethyl-1H-pyrazol-4-yl)oxazol-5-yl)(4-(4-methylpyrazolo[1,5-a]pyridin-2-yl)-1,4,6,7-tetrahydro-5H-imidazo[4,5-c]pyridin-5-yl)methanone], the AC50 was > 5 µM.
As for `O=C(c1nnc(-c2ccccn2)s1)N1CCc2[nH]cnc2[C@H]1c1cc2c(F)cccn2n1` [Example 1968, (S)-(4-(4-fluoropyrazolo [1,5-a]pyridin-2-yl)-1,4,6,7-tetrahydro-5H-imidazo[4,5-c]pyridin-5-yl)(5-(pyridin-2-yl)-1,3,4-thiadiazol-2-yl) methanone], the figure is < 0.5 µM; as for `O=C(c1nnc(-c2ccccn2)s1)N1CCc2[nH]cnc2[C@@H]1c1cc2c(F)cccn2n1` [Example 1969, (R)-(4-(4-fluoropyrazolo [1,5-a]pyridin-2-yl)-1,4,6,7-tetrahydro-5H-imidazo[4,5-c]pyridin-5-yl)(5-(pyridin-2-yl)-1,3,4-thiadiazol-2-yl) methanone], > 5 µM; as for `Cc1cccn2nc([C@@H]3c4nc[nH]c4CCN3C(=O)c3nnc(-c4ccccn4)s3)cc12` [Example 1970, (S)-(4-(4-methylpyrazolo [1,5-a]pyridin-2-yl)-1,4,6,7-tetrahydro-5H-imidazo[4,5-c]pyridin-5-yl)(5-(pyridin-2-yl)-1,3,4-thiadiazol-2-yl) methanone], < 0.5 µM.
`Cc1cccn2nc([C@H]3c4nc[nH]c4CCN3C(=O)c3nnc(-c4ccccn4)s3)cc12` [Example 1971, (R)-(4-(4-methylpyrazolo [1,5-a]pyridin-2-yl)-1,4,6,7-tetrahydro-5H-imidazo[4,5-c]pyridin-5-yl)(5-(pyridin-2-yl)-1,3,4-thiadiazol-2-yl) methanone]: the concentration at half-maximal activity (AC50) is > 5 µM.
The value for `CC(C)c1cccn2nc([C@H]3c4nc[nH]c4CCN3C(=O)c3nnc(-c4ccn(C(F)F)n4)o3)cc12` [Example 1982, (R)-(5-(1-(difluoromethyl)-1H-pyrazol-3-yl)-1,3,4-oxadiazol-2-yl)(4-(4-isopropylpyrazolo[1,5-a]pyridin-2-yl)-1,4,6,7-tetrahydro-5H-imidazo[4,5-c]pyridin-5-yl)methanone] was > 5 µM.
On to `CC(C)c1cccn2nc([C@@H]3c4nc[nH]c4CCN3C(=O)c3nnc(-c4ccn(C(F)F)n4)o3)cc12` [Example 1983, (S)-(5-(1-(difluoromethyl)-1H-pyrazol-3-yl)-1,3,4-oxadiazol-2-yl)(4-(4-isopropylpyrazolo[1,5-a]pyridin-2-yl)-1,4,6,7-tetrahydro-5H-imidazo[4,5-c]pyridin-5-yl)methanone], for which the concentration at half-maximal activity (AC50) is < 0.5 µM.
Regarding `Cc1cccn2nc([C@H]3c4nc[nH]c4CCN3C(=O)c3nnc(C4CC4)s3)cc12` [Example 1996, (R)-(5-cyclopropyl-1,3,4-thiadiazol-2-yl)(4-(4-methylpyrazolo[1,5-a]pyridin-2-yl)-1,4,6,7-tetrahydro-5H-imidazo[4,5-c]pyridin-5-yl)methanone], the AC50 was in the range of 1 to 5 µM.
`O=C(c1ocnc1C1CC1)N1CCc2[nH]cnc2[C@@H]1c1cc2c(C(F)(F)F)cccn2n1` [Example 2015, (R)-(4-cyclopropyloxazol-5-yl)(4-(4-(trifluoromethyl)pyrazolo [1,5-a]pyridin-2-yl)-1,4,6,7-tetrahydro-5H-imidazo[4,5-c]pyridin-5-yl)methanone]: the half-maximal activity concentration (AC50) lay within 1 to 5 µM.
Regarding `Cc1cccn2nc([C@H]3c4nc[nH]c4CCN3C(=O)c3nc4ccccc4o3)cc12` [Example 2021, (R)-benzo[d]oxazol-2-yl (4-(4-methylpyrazolo[1,5-a]pyridin-2-yl)-1,4,6,7-tetrahydro-5H-imidazo[4,5-c]pyridin-5-yl)methanone], the concentration at half-maximal activity (AC50) was > 5 µM.
Turning to `O=C([C@@H]1CC1(F)F)N1CCc2[nH]cnc2[C@H]1c1cc2c(F)cccn2n1` [Example 2030, ((S)-2,2-difluorocyclopropyl) ((S)-4-(4-fluoropyrazolo[1,5-a]pyridin-2-yl)-1,4,6,7-tetrahydro-5H-imidazo[4,5-c]pyridin-5-yl)methanone], the AC50 is < 0.5 µM.
As to `O=C(c1cnc(-c2ccccn2)o1)N1CCc2[nH]cnc2[C@@H]1c1cc2c(C(F)F)cccn2n1` [Example 2035, (R)-(4-(4-(difluoromethyl)pyrazolo[1,5-a]pyridin-2-yl)-1,4,6,7-tetrahydro-5H-imidazo [4,5-c]pyridin-5-yl)(2-(pyridin-2-yl)oxazol-5-yl)methanone], the AC50 is > 5 µM.
As for `O=C(c1ocnc1C1CC1)N1CCc2[nH]cnc2[C@@H]1c1cc2c(C(F)F)cccn2n1` [Example 2038, (R)-(4-cyclopropyloxazol-5-yl)(4-(4-(difluoromethyl)pyrazolo [1,5-a]pyridin-2-yl)-1,4,6,7-tetrahydro-5H-imidazo[4,5-c]pyridin-5-yl)methanone], the figure is 1 to 5 µM.
As for `O=C(c1ocnc1C1CC1)N1CCc2[nH]cnc2[C@H]1c1cc2c(C(F)F)cccn2n1` [Example 2039, (S)-(4-cyclopropyloxazol-5-yl)(4-(4-(difluoromethyl)pyrazolo [1,5-a]pyridin-2-yl)-1,4,6,7-tetrahydro-5H-imidazo[4,5-c]pyridin-5-yl)methanone], the figure is < 0.5 µM; as for `O=C(c1ocnc1C1CC1)N1CCc2[nH]cnc2[C@H]1c1cc2c(Cl)cccn2n1` [Example 2040, (S)-(4-(4-chloropyrazolo [1,5-a]pyridin-2-yl)-1,4,6,7-tetrahydro-5H-imidazo [4,5-c]pyridin-5-yl)(4-cyclopropyloxazol-5-yl) methanone], < 0.5 µM; as for `O=C(c1nc2ccccc2o1)N1CCc2[nH]cnc2[C@H]1c1cc2c(F)cccn2n1` [Example 2050, (S)-benzo[d]oxazol-2-yl (4-(4-fluoropyrazolo[1,5-a]pyridin-2-yl)-1,4,6,7-tetrahydro-5H-imidazo[4,5-c]pyridin-5-yl)methanone], < 0.5 µM.
With `CC(C)(F)c1nnc(C(=O)N2CCc3[nH]cnc3[C@@H]2c2cc3c(C4CC4)cccn3n2)o1` [Example 2060], the AC50 is > 5 µM.
Turning to `Fc1cccc(F)c1-c1nnc(N2CCc3[nH]cnc3[C@@H]2c2cc3c(Cl)cccn3n2)o1` [Example 2062, (R)-2-(4-(4-chloropyrazolo [1,5-a]pyridin-2-yl)-1,4,6,7-tetrahydro-5H-imidazo [4,5-c]pyridin-5-yl)-5-(2,6-difluorophenyl)-1,3,4-oxadiazole], the AC50 was > 5 µM.
For the compound `CC(C)(F)c1ncc(C(=O)N2CCc3[nH]cnc3[C@H]2c2cc3c(F)cccn3n2)o1` [Example 2064, (S)-(2-(2-fluoropropan-2-yl)oxazol-5-yl)(4-(4-fluoropyrazolo[1,5-a]pyridin-2-yl)-1,4,6,7-tetrahydro-5H-imidazo[4,5-c]pyridin-5-yl)methanone], the AC50 is < 0.5 µM.
Regarding `Cc1c(-c2ncc(C(=O)N3CCc4[nH]cnc4[C@@H]3c3cc4c(C(F)F)cccn4n3)o2)cnn1C` [Example 2069, (R)-(4-(4-(difluoromethyl)pyrazolo[1,5-a]pyridin-2-yl)-1,4,6,7-tetrahydro-5H-imidazo [4,5-c]pyridin-5-yl)(2-(1,5-dimethyl-1H-pyrazol-4-yl)oxazol-5-yl)methanone], the AC50 is > 5 µM.
As to `Cc1cccc2cc([C@H]3c4nc[nH]c4CCN3C(=O)c3ocnc3C3CC3)nn12` [Example 2071, (R)-(4-cyclopropyloxazol-5-yl)(4-(7-methylpyrazolo[1,5-a]pyridin-2-yl)-1,4,6,7-tetrahydro-5H-imidazo[4,5-c]pyridin-5-yl)methanone], the concentration at half-maximal activity (AC50) was > 5 µM.
With `Cc1cccn2nc([C@H]3c4nc[nH]c4CCN3C(=O)c3oc(-c4cnn(C)c4)nc3C3CC3)cc12` [Example 2075], the AC50 was in the range of 1 to 5 µM.
Turning to `O=C(C1CCC1)N1CCc2[nH]cnc2[C@@H]1c1cc2c(F)cccn2n1` [Example 2081, (R)-cyclobutyl(4-(4-fluoropyrazolo[1,5-a]pyridin-2-yl)-1,4,6,7-tetrahydro-5H-imidazo[4,5-c]pyridin-5-yl)methanone], the AC50 is > 5 µM.

A word on the AC50: it is the concentration giving half of the maximal activity seen.
